Experimental data: patent EP0463514B1, “3.3'-Dithiobis (propionic acids) and esters thereof” (priority 1990, dated 1992)
Marks after values point to notes of the source that are not given here.

Tested on: delayed type hypersensitivity (DTH) reaction
Assay: Delayed type hypersensitivity (DTH) reaction in the mouse, OXA sensitization and ear challenge, ear thickness
Format: in vivo, Balb/c mice
Settings: oral feeding from sensitization to Day 6, 100 = doubled ear thickness; for % Increase, 48h: increase in ear thickness 48 hours after OXA challenge
Description: The property of the compounds of the invention to stimulate immune responses are illustrated by their efficacy in a model in the mouse of the delayed type hypersensitivity (DTH) reaction.
Both male and female Balb/c mice obtained from Bomhotsgaard (Denmark) and Charlie Rivers (England), were used at the weight of 18-20 gram. 4-ethoxymethylene-2-phenyloxazolone (OXA) was purchased from BDH (England) and served as an antigen in this test.
The mice were sensitized, Day 0, by epicutaneous application of 150 ul absolute ethanol-acetone (3:1) solution containing 3% OXA on the shaved thorax and abdomen. Treatment with the compound under examination, DiNAC (as a positive control) or vehicle (phosphate buffer, pH 7.0) was initiated by oral feeding immediately after sensitization and contiuned once to Day 6. […] (Day 6) after the sensitization both ears of all mice were challenged on both sides by topical application of 20 ul 1% OXA dissolved in olive oil. Ear thickness was measured prior to and 24 or 48 hours after challenge using an Oditest spring calliper. Challenges and measurements were performed under light pentobarbital anaesthesia. The intensity of the DTH reactions was expressed according to the formula: Tt24/48-Tt0 um units, where t0 and t24/48 represent the ear thickness before and 24 or 48 hours after challenge, respectively, in individual test (T). The results were expressed as the mean+/-S.E.M. The level of significance between means of the groups was obtained by Student's two-tailed t-test. […] A figure of 100 thus indicates a doubled ear thickness.

SMILES | % Increase, 48h (0.03 »mol/kg) | % Increase, 48h | % Increase, 24h (increase in ear thickness 24 hours after OXA challenge, 0.03 »mol/kg)
CC(=O)N[C@@H](CSSC[C@H](NC(=O)C(C)(C)C)C(=O)O)C(=O)O [Example 20, (R,R)-N-Acetyl-N'-(2,2-dimethylpropionyl)-3,3'-dithiobis(2-aminopropionic acid)] | 14% | 17* % | 
CCCCCCCC(=O)N[C@@H](CSSC[C@H](NC(=O)CCCCCCC)C(=O)OCC)C(=O)OCC [Example 11, (R,R)-N,N'-di(1-oxo-octyl)-3,3'-dithiobis(2-aminopropionic acid)diethylester] | 0% | 0% | 
CCCCCC(=O)N[C@@H](CSSC[C@H](NC(=O)CCCCC)C(=O)OC)C(=O)OC [Example 9, (R,R)-N,N'-dihexanoyl-3,3'-dithiobis(2-aminopropionic acid)dimethylester] | 51*** % | 45*** % | 
COC(=O)[C@H](CSSC[C@H](NC(=O)C(C)C)C(=O)OC)NC(=O)C(C)C [Example 14, (R,R)-N,N'-di(2-methylpropionyl)-3,3'-dithiobis(2-aminopropionic acid)dimethylester] | 17* % | 27*** % | 
CCCCCCCC(=O)N[C@@H](CSSC[C@H](NC(=O)CCCCCCC)C(=O)OC)C(=O)OC [Example 10, (R,R)-N,N'-di(1-oxo-octyl)-3,3'-dithiobis-(2-aminopropionic acid)dimethylester] | 28** % | 20* % | 
CC(C)(C)C(=O)N[C@@H](CSSC[C@H](NC(=O)C(C)(C)C)C(=O)O)C(=O)O [Example 21, (R,R)-N,N'-di(2,2-dimethylpropionyl)-3,3'-dithiobis(2-aminopropionic acid)] | 26* % | 27* % | 14* %
CC(C)C(=O)N[C@@H](CSSC[C@H](NC(=O)C(C)C)C(=O)O)C(=O)O [Example 16, (R,R)-N,N'-di(2-methylpropionyl)-3,3'-dithiobis(2-aminopropionic acid)] | 27** % | 62*** % | 
